Laboratory results published in patent US20240343706A1, “PIPERIDINE-2,6-DIONE DERIVATIVES WHICH BIND TO CEREBLON, AND METHODS OF USE THEREOF” (Captor Therapeutics S.A., priority 2019, published 2024).
pEC50, pKi: −log10 of the molar value.

Experiments:
CK1α = CK1α degradation assay, Kelly cell line (western blot densitometry); type: cell-based; conditions: Kelly cells; for % of protein reduction based on densitometry values, CK1α (24 H): summary Table 10, 20 μM (some compounds 10 and 20 μM); for % of CK1α protein reduction, based on densitometry values: 24 h
Text: (§1) After primary and secondary Ab staining, the membranes were washed and signals developed. The densitometry analysis was implemented to obtain the numeric values used later in the protein level evaluation process.

SALL4 = SALL4 degradation assay, Kelly cell line (western blot densitometry); type: cell-based; conditions: Kelly cells; for % of protein reduction based on densitometry values, SALL4 (24 H): summary Table 10, 20 μM (some compounds 10 and 20 μM); for % of SALL4 protein reduction, based on densitometry values: 24 h
Text: as §1

IKZF1 = IKZF1 degradation assay, H929 cell line (western blot densitometry); type: cell-based; conditions: H929 cells; for % of protein reduction based on densitometry values, IKZF 1 (24 H): summary Table 10, 20 μM (some compounds 10 and 20 μM)
Text: as §1

IKZF3 = IKZF3 degradation assay, H929 cell line (western blot densitometry); type: cell-based; conditions: H929 cells; for % of protein reduction based on densitometry values, IKZF3 (24 H): summary Table 10, 10 and 20 μM
[1] = target: CRBN-DDB1 protein complex (Homo sapiens, UniProt Q96SW2); assay: Fluorescence polarization (FP) assay, displacement of Cy5-labelled thalidomide; conditions: 25 nM CRBN-DDB1, 5 nM Cy5-labelled thalidomide, read-out: CRBN binding Ki
Protocol: CRBN-DDB1 protein complex was mixed with Cy5-labelled thalidomide and a compound to be tested (the “test compound”). […] The test solution was added to a 384-well assay plate.
The plate was spun-down (1 min, 1000 rpm, 22° C.) and then shaken using a VibroTurbulator for 10 min at room temperature (20-25° C.), with the frequency set to level 3. The assay plate with protein and the tracer was incubated for 60 min at room temperature (20-25° C.) prior to read-out with a plate reader.
The FP experiment was carried out with various concentrations of the test compounds in order to measure Ki values.

[2] = target: BRD4-compound-CRBN/DDB1 ternary complex (Homo sapiens, UniProt O60885+Q96SW2); assay: BRD4-compound-CRBN/DDB1 ternary complex formation, AlphaLISA homogenous assay; type: biochemical; conditions: for pEC50: 100 nM His-CRBN/DDB1, 20 nM BRD4, N = 3, read-out: TF50 (compound concentration which mediate the half of maximal response observed for Ternary Complex); for Normalized AUC to dBET1: area under curve 1.63-2500 nM
Protocol: Biotinylated BRD4 and His-CRBN/DDB1 complex preparations were centrifugated to remove large aggregates (18000 rcf, 4° C., 5 min). Supernatant was collected and protein concentration was determined spectrophotometrically. The AlphaLISA bead-Protein mixtures were prepared: CRBN-acceptor bead (40 μg/ml Anti-6×His beads, 200 nM His-CRBN/DDB1 in PBS pH 7.4 supplemented with 0.1% Tween-20) and BRD4-donor bead (40 μg/ml Streptavidin beads, 40 nM BRD4 in PBS pH 7.4 supplemented with 0.1% Tween-20 and 2 mM DTT). Bead mixes were incubated in dark for 30 minutes at room temperature.
CRBN-acceptor bead mix and BRD4-donor bead mix were combined and dispensed into plate with compounds and DMSO only (10 μl of master mix per well). Final sample composition: 20 μg/ml Anti-6×His beads, 20 μg/ml Stretavidin beads, 100 nM His-CRBN/DDB1, 20 nM BRD4, 2% DMSO, 0.1% Tween-20, 1 mM DTT in PBS pH 7.4, +/− compound. Plate was sealed and covered to protect against light. Sample was mixed using Vibroturbulator. Subsequently, solutions in the plate was centrifugated and incubated in the dark for 30 minutes at 25° C. The plate seal was removed and sample luminescence was determined using Perkin Elmer Enspire plate reader. Readouts were assigned to certain compound concentration. Solutions without compound were utilized to determine background response (an average value) which subsequently was subtracted from raw data collected for compound mixtures.

BRD4 = BRD4 (Homo sapiens, UniProt O60885); assay: BRD4 degradation assay, H929 cell line (Simple Western); conditions: H929 cells, 6 h

Compound | % of protein reduction based on densitometry values, CK1α (24 H) (CK1α) | % of protein reduction based on densitometry values, SALL4 (24 H) (SALL4) | % of protein reduction based on densitometry values, IKZF 1 (24 H) (IKZF1) | % of IKZF3 protein reduction based on densitometry values, IKZF3 Band I (IKZF3; 10 μM, 24 h) | % of IKZF3 protein reduction based on densitometry values, IKZF3 Band II (IKZF3; 10 μM, 24 h) | % of IKZF3 protein reduction based on densitometry values, IKZF3 Band I (IKZF3; 20 μM, 24 h) | % of IKZF3 protein reduction based on densitometry values, IKZF3 Band II (IKZF3; 20 μM, 24 h) | % of protein reduction based on densitometry values, IKZF3 (24 H) (IKZF3) | pKi [1] | % of IKZF1 α protein reduction based on densitometry values (IKZF1; 0.1 μM, 6 h) | % of IKZF1 α protein reduction based on densitometry values (IKZF1; 1 μM, 6 h) | % of IKZF1 α protein reduction based on densitometry values (IKZF1; 10 μM, 6 h) | % of IKZF3 protein reduction based on densitometry values, IKZF3 Band I (IKZF3; 0.1 μM, 6 h) | % of IKZF3 protein reduction based on densitometry values, IKZF3 Band II (IKZF3; 0.1 μM, 6 h) | % of IKZF3 protein reduction based on densitometry values, IKZF3 Band I (IKZF3; 1 μM, 6 h) | % of IKZF3 protein reduction based on densitometry values, IKZF3 Band II (IKZF3; 1 μM, 6 h) | % of IKZF3 protein reduction based on densitometry values, IKZF3 Band I (IKZF3; 10 μM, 6 h) | % of IKZF3 protein reduction based on densitometry values, IKZF3 Band II (IKZF3; 10 μM, 6 h) | pEC50 [2] | Normalized AUC to dBET1 [2] | also measured
Cc1nc2c(C(=O)NC3CCC(=O)NC3=O)cccc2[nH]1 (centres unmarked) [Compound 15, N-(2,6-dioxopiperidin-3-yl)-2-methyl-1H-benzo[d]imidazole-4-carboxamide] | ≤25% (≤25% for 0-25% of CK1a protein reduction) | ≤25% (≤25% for 0-25% of SALL4 protein reduction) | ≤25% (≤25% for 0-25% of IKZF1 protein reduction) | ≤25% (≤25% for 0-25% of IKZF3 protein reduction) | ≤25% (≤25% for 0-25% of IKZF3 protein reduction) | ≤25% (≤25% for 0-25% of IKZF3 protein reduction) | ≤25% (≤25% for 0-25% of IKZF3 protein reduction) | ≤25% (≤25% for 0-25% of IKZF3 protein reduction) | > 6.00 |  |  |  |  |  |  |  |  |  |  |  | 
Cc1sc2c(c1C)C(c1ccc(Cl)cc1)=N[C@@H](CC(=O)NCCCCCCCCNC(=O)CCc1nc3c(C(=O)NC4CCC(=O)NC4=O)cccc3[nH]1)c1nnc(C)n1-2 (stereo partly drawn) [Compound 64, 2-(3-((8-(2-((S)-4-(4-chlorophenyl)-2,3,9-trimethyl-6H-thieno[3,2-f][1,2,4]triazolo[4,3-a][1,4]diazepin-6-yl)acetamido)octyl)amino)-3-oxopropyl)-N-(2,6-dioxopiperidin-3-yl)-1H-benzo[d]imidazole-7-carboxamide] |  |  |  |  |  |  |  |  | 5.00 to 6.00 | ≤25% (≤25% for 0-25% of IKZF1 protein reduction) | ≤25% (≤25% for 0-25% of IKZF1 protein reduction) | ≤25% (≤25% for 0-25% of IKZF1 protein reduction) | ≤25% (≤25% for 0-25% of IKZF3 protein reduction) | ≤25% (≤25% for 0-25% of IKZF3 protein reduction) | >25% (>25% for 26-74% of IKZF3 protein reduction) | ≤25% (≤25% for 0-25% of IKZF3 protein reduction) | ≤25% (≤25% for 0-25% of IKZF3 protein reduction) | ≤25% (≤25% for 0-25% of IKZF3 protein reduction) | 7.15 | 1.45 | BRD4 degradation (in words) (BRD4): can degrade BRD4
Cc1nc2c(C(=O)NC3CCC(=O)NC3=O)cncc2[nH]1 (centres unmarked) [Compound 35, N-(2,6-dioxopiperidin-3-yl)-2-methyl-3H-imidazo[4,5-c]pyridine-7-carboxamide] | ≤25% (≤25% for 0-25% of CK1a protein reduction) | ≤25% (≤25% for 0-25% of SALL4 protein reduction) | ≤25% (≤25% for 0-25% of IKZF1 protein reduction) | ≤25% (≤25% for 0-25% of IKZF3 protein reduction) | ≤25% (≤25% for 0-25% of IKZF3 protein reduction) | ≤25% (≤25% for 0-25% of IKZF3 protein reduction) | ≤25% (≤25% for 0-25% of IKZF3 protein reduction) | ≤25% (≤25% for 0-25% of IKZF3 protein reduction) | 5.00 to 6.00 |  |  |  |  |  |  |  |  |  |  |  | % of CK1α protein reduction, based on densitometry values (CK1α; 10 μM): ≤25% (≤25% for 0-25% of CK1a protein reduction); % of CK1α protein reduction, based on densitometry values (CK1α; 20 μM): ≤25% (≤25% for 0-25% of CK1a protein reduction); % of SALL4 protein reduction, based on densitometry values (SALL4; 10 μM): ≤25% (≤25% for 0-25% of SALL4 protein reduction); % of SALL4 protein reduction, based on densitometry values (SALL4; 20 μM): ≤25% (≤25% for 0-25% of SALL4 protein reduction); % of IKZF1 α protein reduction based on densitometry values (IKZF1; 10 μM, 24 h): ≤25% (≤25% for 0-25% of IKZF1 protein reduction); % of IKZF1 α protein reduction based on densitometry values (IKZF1; 20 μM, 24 h): ≤25% (≤25% for 0-25% of IKZF1 protein reduction)
Cc1nc2c(C(=O)NC3CCC(=O)NC3=O)cc(OCC(=O)NCCCCCCCCNC(=O)C[C@@H]3N=C(c4ccc(Cl)cc4)c4c(sc(C)c4C)-n4c(C)nnc43)cc2[nH]1 (stereo partly drawn) [Compound 66, 5-(2-((8-(2-((S)-4-(4-chlorophenyl)-2,3,9-trimethyl-6H-thieno[3,2-f][1,2,4]triazolo[4,3-a][1,4]diazepin-6-yl)acetamido)octyl)amino)-2-oxoethoxy)-N-(2,6-dioxopiperidin-3-yl)-2-methyl-1H-benzo[d]imidazole-7-carboxamide] |  |  |  |  |  |  |  |  | > 6.00 | ≤25% (≤25% for 0-25% of IKZF1 protein reduction) | ≤25% (≤25% for 0-25% of IKZF1 protein reduction) | ≤25% (≤25% for 0-25% of IKZF1 protein reduction) | ≤25% (≤25% for 0-25% of IKZF3 protein reduction) | ≤25% (≤25% for 0-25% of IKZF3 protein reduction) | ≤25% (≤25% for 0-25% of IKZF3 protein reduction) | ≤25% (≤25% for 0-25% of IKZF3 protein reduction) | ≤25% (≤25% for 0-25% of IKZF3 protein reduction) | ≤25% (≤25% for 0-25% of IKZF3 protein reduction) | 7.38 | 1.53 | BRD4 degradation (in words) (BRD4): can degrade BRD4
COc1cc(C(=O)NC2CCC(=O)NC2=O)c2nc(C)[nH]c2c1 (centres unmarked) [Compound 30, N-(2,6-dioxopiperidin-3-yl)-6-methoxy-2-methyl-1H-benzo[d]imidazole-4-carboxamide] | ≤25% (≤25% for 0-25% of CK1a protein reduction) | ≤25% (≤25% for 0-25% of SALL4 protein reduction) | ≤25% (≤25% for 0-25% of IKZF1 protein reduction) | ≤25% (≤25% for 0-25% of IKZF3 protein reduction) | ≤25% (≤25% for 0-25% of IKZF3 protein reduction) | ≤25% (≤25% for 0-25% of IKZF3 protein reduction) | ≤25% (≤25% for 0-25% of IKZF3 protein reduction) | ≤25% (≤25% for 0-25% of IKZF3 protein reduction) | > 6.00 |  |  |  |  |  |  |  |  |  |  |  | 
